“And” between values parts separate entries of the source, which are not always exact repeats. Identical values can stand only once.

The source of these data is PubChem BioAssay AID1963845 (Molecular Pharmacology Branch, DTP, NCI, 2024).

For this assay, the system named is 429239-143-T-J1-PDC complex spheroid viability. As to the kind of experiment: Anticancer human tumor 429239-143-T-J1-PDC patient-derived small cell lung carcinoma cell line growth inhibition [POLQ]. To be noted: for viability, T/C: stronger effect = lower value. As to the method:
Multicellular complex tumor spheroid response to Polymerase (POL) inhibitors (novobiocin, ART-558, RP6685) in combination with a variety of drugs and investigational agents in selected tumor cell lines
The POL inhibitors (novobiocin, ART-558, and RP6685) were evaluated both individually and in combination with standard of care and investigational anticancer small molecules within a complex spheroid model of solid tumors. . Complex spheroids include a stromal component modeled by human endothelial cells (HUVEC) and fibroblasts modeled by human mesenchymal stem cells (MSCs). The concentration ranges selected for each drug and investigational agent were based upon clinically achievable concentrations if the clinical Cmax of the agent was known.
Compounds. The drugs and investigational agents: novobiocin (NSC847541), ART-558 (NSC835418), RP-6685 (NSC848927), peposertib (NSC802822), ceralasertib (NSC780249), elimusertib (NSC800525), camonsertib (NSC841442), AZD-1390 (NSC803789), olaparib (NSC753686), talazoparib (NSC767125), rucaparib (NSC756644), sotorasib (NSC818433), MRTX-1133 (NSC836407), SN-38 (NSC673596), topotecan (NSC609699), epotoside (NSC141540), doxorubicin (NSC123127), gemcitabine (NSC613327), 5-fluorouracil (NSC19893), paclitaxel (NSC125973), vemurafenib (NSC761431), MSA-2 (NSC828583), SN-011 (NSC837082), adavosertib (NSC754352), prexasertib (NSC758257), carboplatin (NSC241240) and oxaliplatin (NSC266046), were obtained from the National Cancer Institute (NCI) Developmental Therapeutics Program Chemical Repository (21). The FDA-approved anticancer drug set is available from the Developmental Therapeutics Program at https://dtp.cancer.gov/organization/dscb/obtaining/. […] The stock solutions were prepared in dimethyl sulfoxide (DMSO, Sigma-Aldrich, St. Louis, MO, cat. D2650), except for the platinum compounds which were prepared in saline (Quality Biological, Gaithersburg, MD, cat. 114-055-101), at 800-fold the tested concentration and stored at -70 degrees C prior to their use. All drugs and investigational agents were tested over a range starting from a high concentration at or near the clinical Cmax and decreasing in half-log increments. If the clinical Cmax for an agent had not been determined, the highest concentration tested was 10 microM, except for SN-38, which was tested at a high concentration of 1 microM.
Cell Culture. All cells were maintained in an incubator at 37 degrees C and 5% CO2 with 95% humidity. The PDC lines were cultured according to standard operating procedures established by the NCI PDMR (https://pdmr.cancer.gov). Table 3 of the manuscript, lists the cell lines along with the number of the three cell types plated to form the mct-spheroids and media for tumor cell growth. After thawing, all PDC lines, except 997537-175-T-J1-PDC and 415267-285-R-J2-PDC, were cultured in Matrigel-coated flasks prepared with a working solution of 1X Ham's F-12 nutrient mix, without supplementation (Thermo Fisher Scientific, cat. 11765054), 100 U/mL penicillin-streptomycin (Thermo Fisher Scientific, cat. 15140122), and 2.5% Matrigel (Corning Inc., Corning, NY, cat. 354248) for the first three passages. The two PDC lines 997537-175-T-J1-PDC and 415267-285-R-J2-PDC were cultured on uncoated flasks. The 857933-349-R-J2-PDC line was cultured in 6C/Colon 1B media containing advanced DMEM/F-12 (Thermo Fisher Scientific, cat. 12634028), 10 mM HEPES (Thermo Fisher Scientific, cat. 15630080), 1X GlutaMAX supplement (Thermo Fisher Scientific, cat. 35050061), 0.1 mg/mL primocin (InvivoGen, San Diego, CA, cat. ant-pm-2), 10% defined fetal bovine serum, heat inactivated (HyClone Laboratories Inc., Logan, UT, cat. SH30070.03HI), 50% L-WRN conditioned media (ATCC, cat. CRL-3276), 1.25 mM N-Acetyl-L-cysteine (Sigma-Aldrich, cat. A9165), 10 mM nicotinamide (Sigma-Aldrich, cat. N0636), 1X B-27 supplement (Thermo Fisher Scientific, cat. 17504044), 1X N-2 supplement (Thermo Fisher Scientific, cat. […]
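Also: luminescence signal used as surrogate measure of viable cells; spheroids exposed to compounds for seven days before readout.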
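For viability, T/C in this document: 100% = DMSO vehicle control viability as luminescence relative to vehicle.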

Consider `C=CCn1c(=O)c2cnc(Nc3ccc(N4CCN(C)CC4)cc3)nc2n1-c1cccc(C(C)(C)O)n1`, for which the viability, T/C (usually the result in the treated group divided by that in the control group, in per cent) runs as follows: (compound 0.00316 µM) 99.5% and 101% and 95.1%; (compound 0.01 µM) 103% and 107% and 104%; (compound 0.0316 µM) 89.4% and 120% and 103%; (compound 0.1 µM) 82.4% and 97.7% and 98.2%; (compound 0.316 µM) 91.7% and 94% and 88.9%; (compound 1 µM) 17.4% and 20% and 18.9%. Moreover, for the setting “curve of compound”, the IC50 – broadly, the concentration that inhibits the measured activity by half – was 603 nM and 621 nM and 600 nM.

`CC(=O)O[C@H]1C(=O)[C@@]2(C)[C@H]([C@H](OC(=O)c3ccccc3)[C@]3(O)C[C@H](OC(=O)[C@H](O)[C@@H](NC(=O)c4ccccc4)c4ccccc4)C(C)=C1C3(C)C)[C@]1(OC(C)=O)CO[C@@H]1C[C@@H]2O`: the viability, T/C runs as follows: (compound 0.00949 µM) 62.4% and 68.4% and 14%; (compound 0.03 µM) 18.6% and 19.8% and 13.2%; (compound 0.0949 µM) 14.8% and 17.6% and 11.4%; (compound 0.3 µM) 19.5% and 16.1% and 12.9%; (compound 0.949 µM) 19.7% and 25.1% and 11.1%; (compound 3 µM) 29.5% and 28.1% and 14%. Moreover, the IC50 (curve of compound) was 13.4 nM and 14.9 nM and < 9.49 nM.

Turning to `CC(C)n1c(=O)n(C)c2cnc3cc(F)c(-c4ccc(OCCCN5CCCCC5)nc4)cc3c21`, the viability, T/C is, setting by setting: (compound 0.0316 µM) 99.4% and 102% and 100%; (compound 0.1 µM) 94.7% and 101% (2×); (compound 0.316 µM) 102% and 94.4% and 86.6%; (compound 1 µM) 89.1% and 102% and 95.7%; (compound 3.16 µM) 91.2% and 99.8% and 90.1%; (compound 10 µM) 60.3% and 99.5% and 74.6%. Besides, for the setting “curve of compound”, the IC50 is above 10000 nM.

In the case of `CC1COCCN1c1cc(-c2ccnn2C)c2ccnc(-c3ccn[nH]3)c2n1` (stereo not drawn), the viability, T/C by setting is: (compound 0.0316 µM) 81.5% and 81.3% and 92.4%; (compound 0.1 µM) 50% and 45.1% and 76.5%; (compound 0.316 µM) 27.3% and 28.6% and 65.2%; (compound 1 µM) 13.1% and 16% and 35.1%; (compound 3.16 µM) 10.7% and 9.53% and 5.15%; (compound 10 µM) 10.5% and 9.86% and 3.76%. Moreover, the concentration for half-maximal inhibition (IC50) (curve of compound) was 102 nM and 88.6 nM and 527 nM.

With `CC1COCCN1c1cc(C2(S(C)(=N)=O)CC2)nc(-c2ccnc3[nH]ccc23)n1` (stereo not drawn), the viability, T/C reads like this: (compound 0.0316 µM) 106% and 91.7% and 104%; (compound 0.1 µM) 99.9% and 108% and 91.8%; (compound 0.316 µM) 94.5% and 93.5% and 97.2%; (compound 1 µM) 70.8% and 83.8% and 71.7%; (compound 3.16 µM) 41.6% and 77.8% and 42.5%; (compound 10 µM) 16.7% and 45.8% and 16.9%. Also, the 50% inhibitory concentration (IC50) (curve of compound) is 2270 nM and 8700 nM and 2350 nM.

`CCCS(=O)(=O)Nc1ccc(F)c(C(=O)c2c[nH]c3ncc(-c4ccc(Cl)cc4)cc23)c1F`: the viability, T/C (compound 0.0316 µM) is 94.3% and 101% and 99.8%; the viability, T/C (compound 0.1 µM) is 96.1% and 110% and 85.9%; the viability, T/C (compound 0.316 µM) is 100% and 104% and 94.3%; the viability, T/C (compound 1 µM) is 92.9% and 106% and 89.7%; the viability, T/C (compound 3.16 µM) is 97.2% and 113% and 91%; the viability, T/C (compound 10 µM) was 79.2% and 84.4% and 48.5%. Besides, the IC50 (curve of compound) is > 10000 nM and 9610 nM.

As for `CC[C@@]1(O)C(=O)OCc2c1cc1n(c2=O)Cc2cc3c(CN(C)C)c(O)ccc3nc2-1`, the viability, T/C (compound 0.000316 µM) is 98.5% and 98.7% and 92.7%; the viability, T/C (compound 0.001 µM) was 96.4% and 98.7% and 99.2%; the viability, T/C (compound 0.00316 µM) was 99.3% and 95.3% and 99.2%; the viability, T/C (compound 0.01 µM) is 64% and 86.4% and 63.1%; the viability, T/C (compound 0.0316 µM) was 18% and 9.22% and 16.4%; the viability, T/C (compound 0.1 µM) is 16% and 6.06% and 17.5%. Also, the 50% inhibitory concentration (IC50) (curve of compound) was 14.1 nM and 17.2 nM and 13.9 nM.

As to `CCc1c2c(nc3ccc(O)cc13)-c1cc3c(c(=O)n1C2)COC(=O)[C@]3(O)CC`, the viability, T/C runs as follows: (compound 0.00316 µM) 14.7% and 8.09% and 15.9%; (compound 0.01 µM) 15.4% and 8.23% and 16.2%; (compound 0.0316 µM) 15.1% and 8.92% and 18.4%; (compound 0.1 µM) 18% and 6.71% and 16.7%; (compound 0.316 µM) 14.7% and 5.07% and 16%; (compound 1 µM) 4.2% and 2.5% and 5.57%. In addition, the IC50 (curve of compound) is below 3.16 nM.

As for `CNCc1ccc(-c2[nH]c3cc(F)cc4c3c2CCNC4=O)cc1`, the viability, T/C reads like this: (compound 0.0316 µM) 87.2% and 101% and 90.9%; (compound 0.1 µM) 82.5% and 98.5% and 90.4%; (compound 0.316 µM) 76.4% and 92.6% and 91.3%; (compound 1 µM) 75.4% and 90% and 68.9%; (compound 3.16 µM) 49.1% and 76.2% and 44.9%; (compound 10 µM) 25% and 30% and 21.1%. For the same compound, the 50% inhibitory concentration (IC50) (curve of compound) is 3170 nM and 6000 nM and 2430 nM.

For `COC1C(OC(N)=O)C(O)C(Oc2ccc3c(O)c(NC(=O)c4ccc(O)c(CC=C(C)C)c4)c(=O)oc3c2C)OC1(C)C` (stereo not drawn), the viability, T/C (compound 0.0316 µM) was 99.8% [middle of 13 runs]; the viability, T/C (compound 0.1 µM) was 101% [middle of 13 runs]; the viability, T/C (compound 0.316 µM) is 100% [middle of 13 runs]; the viability, T/C (compound 3.16 µM) is 99.4% [middle of 13 runs]. For the same compound, the IC50 (compound alone, run of 01/08/2024) was above 10000 nM.
